{"source": "paper PMC6175062", "about": "“Gaining Mechanistic Insight Into Coproporphyrin I as Endogenous Biomarker for OATP1B‐Mediated Drug–Drug Interactions Using Population Pharmacokinetic Modeling and Simulation” (Clinical Pharmacology and Therapeutics, 2018)", "key": {"OATP": {"biological_target": "OATP", "design": "method as in PMID 27170342", "conditions": "cited from earlier work"}, "[1]": {"test_system": "OATP-mediated rosuvastatin uptake in human hepatocytes", "assay": "Rifampicin inhibition of rosuvastatin uptake in plated human hepatocytes", "assay_type": "cell-based", "conditions": "RSV 2 µM; no pre-incubation effect, same donor", "description": "The in vitro IC50 for rifampicin was assessed using CPI and RSV as OATP probe substrates in plated human hepatocytes. Cryopreserved human hepatocytes (Donor QQE, BioreclamationIVT, Baltimore, MD) were thawed and plated at a density of 350,000 cells (1). After culturing for 4h, hepatocytes were washed twice with Dulbecco's phosphate-buffered saline and pre-incubated for an hour with either buffer or rifampicin (0.01-100µM). Following pre-incubation, the medium was replaced with CPI (0.30µM) or RSV (2µM) containing rifampicin (0-100µM). Incubations were stopped after 3 or 5 minutes (for RSV and CPI,respectively) using the washing protocol described previously (2). Monolayers were lysed with water and frozen overnight and then prepared for protein quantification (BCA assay) and LC-MS/MS analysis.\nLysate concentrations were used to demine uptake rates over a series of free RIF concentrations measured in the medium and plotted as a % of the control to estimate RIF IC50 (Main article Figure 5A and Figure S1). RIF IC50 was determined using equation 1, where U denotes the uptake rate (% vs control) at the free inhibitor concentration in the incubation [I] (µM); R, the range of inhibition; B, the un-inhibitable background (%), and S, the slope factor (GraFit v6)."}, "[2]": {"design": "method as in PMID 25813937", "conditions": "in humans; cited from earlier work"}, "OATP1B": {"test_system": "OATP1B", "assay": "Model-based rifampicin in vivo OATP Ki using CPI as probe", "design": "species or system human", "conditions": "for Ki: human, plasma, oral, 600 mg, probe CPI (endogenous biomarker)", "description": "The plasma concentrations of the endogenous biomarker CPI were described using a turnover model (Equation 3).36 Simultaneous fitting of individual CPI plasma and urine data in the presence and absence of RIF was performed. In the final model, RIF inhibited biliary elimination (CL b,CPI) of CPI, whereas its renal clearance (CL R,CPI) and k syn were not affected. The rate of change of CPI plasma concentration under baseline and RIF condition is shown in Equations 3 and 4, respectively, whereas change in CPI amount in urine over time is shown in Equation 5. (3) dCCPI/dt=[ksyn−CLb,CPI⋅CCPI−CLR,CPI⋅CCPI]⋅1/VCPI (4) dCCPI/dt=[ksyn−CLb,CPI⋅CCPI/1+CRIF/KiCPI−CLR,CPI⋅CCPI]⋅1/VCPI (5) dUCPI/dt=CLR,CPI⋅CCPI where C CPI is its plasma concentration, U CPI is the CPI amount in urine, t is time, k syn is the zero‐order synthesis rate, Ki CPI is RIF transporter inhibition constant using CPI as a probe, V CPI is the volume of distribution of CPI and C RIF is RIF plasma concentration (linked to RIF model). Simulations were also performed to assess the consequences of the hypothetical inhibition of both CPI synthesis (k syn and biliary elimination (CL b,CPI) by inhibitor of interest (details in Supplementary Material)."}, "[3]": {"assay": "Population PK model of rifampicin plasma data, healthy subjects", "assay_type": "in vivo, human", "conditions": "single 600-mg oral dose", "description": "Individual plasma and urine data were obtained from a previous study in 12 healthy male subjects.6 The study was split into three occasions (OCC1–3) with a 7‐day washout period between OCC1 and 2 and OCC2 and 3. During each occasion, baseline CPI urine and plasma samples were collected (Figure S2). A single 600‐mg oral dose of RIF and a single 5‐mg oral dose of RSV were administered to the volunteers in OCC1 and OCC2, respectively. Finally, in OCC3 the same respective doses of RIF and RSV were coadministered to healthy volunteers. Plasma (RIF, RSV, and CPI) were collected at predefined timepoints over the 24‐h period following administration of RIF and/or RSV. Urine samples were collected over one time interval (−7 to 0 h) for the pretreatment sample (CPI monitored) and two subsequent intervals (0–7 h and 7–24 h) for posttreatment samples of CPI and RSV. The total number of plasma samples for modeling purposes were 276 (OCC1 = 144, OCC3 = 132), 420 (OCC1 = 144, OCC2 = 144, OCC3 = 132), and 264 (OCC2 = 132, OCC3 = 132) for RIF, CPI, and RSV, respectively, whereas the total number of urine samples were 102 (pretreatment = 34, posttreatment = 68) and 44 for CPI and RSV, respectively. No subjects enrolled in the clinical study had OATP1B1*5 or OATP1B1*15 mutations, associated with altered OATP1B1 activity.\nPopulation PK models were developed sequentially for analysis of RIF, CPI, and RSV plasma and urine data using nonlinear mixed‐effects modeling software, NONMEM, with first‐order conditional estimation method.32 Statistical analysis, GOF plots, and other graphical analysis were conducted in MATLAB. The structural models for RIF and RSV (Supplementary Material) were selected based on population PK models available in the literature.34, 35 An exponential model was used to describe interindividual variability random‐effects parameters and IOV was evaluated for the model parameters; occasions were defined as periods of different visits following recruitment or washout periods. Covariates and random‐effects parameters (IIV and IOV) were retained in the models when there was a significant change in objective function and improvement in GOF plots. The incorporation of IIV and IOV in the models is shown in Equation 2: (2) θik=θ⋅e^ηi+κik where θ ik is the parameter for i^th individual on k^th occasion, θ is the population (typical individual) parameter, η i is the parameter that describes the deviation of the i^th individual parameter from the population (IIV), and k ik the parameter that describes the deviation of the i^th individual from the population in addition to η ik at the k^th occasion (IOV). Both random effect parameters (η ik and k ik) are assumed to be randomly distributed with a mean of zero and the variances are estimated during analysis. Proportional or additive or combination of proportional and additive residual error models were investigated for the residuals.\nBased on a previously developed population PK model for RIF, a one compartment first order elimination model with transit absorption model was used to describe plasma concentrations of RIF (12). This model was parameterised using clearance (CL), volume of distribution (V), absorption rate constant (ka), mean transit time (MTT) and number of transit compartments (n). In order to account for the interaction between RIF and CPI and RIF and RSV, sequential analysis of plasma and urine data was conducted. […]"}}, "note": "Like-named read-outs stand apart in the source and are kept apart here.", "data": [{"molecule": "CO[C@H]1/C=C/O[C@@]2(C)Oc3c(C)c(O)c4c(O)c(c(/C=N/N5CCN(C)CC5)c(O)c4c3C2=O)NC(=O)/C(C)=C\\C=C\\[C@H](C)[C@H](O)[C@@H](C)[C@@H](O)[C@@H](C)[C@H](OC(C)=O)[C@@H]1C", "note": "[rifampicin]", "values": [{"measurement": "Ki", "setting": "OATP; read-out: in vivo Ki estimated from pitavastatin clinical data", "value": 230, "unit": "nM"}, {"measurement": "Ki", "setting": "OATP; read-out: in vivo Ki estimated from pravastatin clinical data", "value": 190, "unit": "nM"}, {"measurement": "IC50", "setting": "[1]", "value": 1000, "unit": "nM"}, {"measurement": "unbound liver-to-plasma concentration ratio", "setting": "[2]", "value": 3.3}, {"measurement": "difference between unbound in vivo Ki from CPI and from RSV", "setting": "OATP1B; CPI-based Ki lower", "value": 2, "unit": "fold"}, {"measurement": "Ki", "setting": "OATP1B; corrected for rifampicin fu plasma 0.11, read-out: in vivo unbound OATP Ki using CPI data", "value": 130, "unit": "nM"}, {"measurement": "Ki", "setting": "OATP1B; total (not corrected for fu), CPI as probe, read-out: KiCPI, total Ki estimated by the model, population estimate (SE%)", "value": 1150, "unit": "nM"}, {"measurement": "CL, population estimate", "setting": "[3]", "value": 3.97, "unit": "L/h"}, {"measurement": "MTT (mean transit time), population estimate", "setting": "[3]", "value": 0.74, "unit": "h"}, {"measurement": "V, population estimate", "setting": "[3]", "value": 24.7, "unit": "L"}, {"measurement": "n (number of transit compartments), population estimate", "setting": "[3]", "value": 8.63}, {"measurement": "ka, population estimate", "setting": "[3]; 12 healthy males", "value": 2.09, "unit": "h⁻¹"}]}]}
